Usually IC50 stands for the point on the concentration scale where inhibition reaches its midpoint.

From patent publication US10040781B2, “Tank-binding kinase inhibitor compounds” (Gilead Sciences, Inc., priority 2014, dated 2018) come the findings set out here.

One experiment concerns the target IKKε (Homo sapiens (Human), UniProt Q14164). Description: IKKε TR-FRET enzymatic assay. The experiment is classed as biochemical. Particulars: TR-FRET, 2×Km ATP; geometric mean of minimum four determinations; read-out: IKKe IC50.
The target of a further experiment is TBK1 (Homo sapiens (Human), UniProt Q9UHD2). Description: TBK1 TR-FRET enzymatic assay.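 Note: phosphorylation of a biotinylated Ser/Thr peptide by purified full-length recombinant TBK1, read by TR-FRET after 240 min at 25 °C, IC50 is the geometric mean of at least four runs.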 Background: TR-FRET usually uses a lanthanide donor and a delayed reading to cut background.
Chain of TBK1 (Q9UHD2 whole entry): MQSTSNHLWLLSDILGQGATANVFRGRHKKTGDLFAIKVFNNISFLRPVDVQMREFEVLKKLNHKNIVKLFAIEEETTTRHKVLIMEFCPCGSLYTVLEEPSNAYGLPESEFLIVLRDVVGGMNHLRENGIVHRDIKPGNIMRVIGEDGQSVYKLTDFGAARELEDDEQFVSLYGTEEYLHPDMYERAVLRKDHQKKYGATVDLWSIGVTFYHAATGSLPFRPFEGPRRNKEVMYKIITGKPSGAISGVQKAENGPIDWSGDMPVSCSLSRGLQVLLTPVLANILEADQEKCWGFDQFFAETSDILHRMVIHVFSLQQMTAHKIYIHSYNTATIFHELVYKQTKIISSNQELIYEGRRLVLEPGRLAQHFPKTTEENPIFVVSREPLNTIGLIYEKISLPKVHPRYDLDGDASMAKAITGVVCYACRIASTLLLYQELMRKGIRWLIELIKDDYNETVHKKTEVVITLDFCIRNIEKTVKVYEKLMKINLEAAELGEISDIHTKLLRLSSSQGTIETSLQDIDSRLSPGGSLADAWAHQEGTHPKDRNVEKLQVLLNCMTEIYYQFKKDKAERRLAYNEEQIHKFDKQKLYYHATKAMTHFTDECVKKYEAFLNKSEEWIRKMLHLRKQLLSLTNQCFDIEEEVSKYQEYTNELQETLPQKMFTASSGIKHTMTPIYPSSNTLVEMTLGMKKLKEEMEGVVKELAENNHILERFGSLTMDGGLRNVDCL
The target in a further experiment is hJAK2 (Homo sapiens (Human), UniProt O60674). Description: hJAK2 LANCE TR-FRET enzymatic assay. It is filed as biochemical. As to conditions: read-out: JAK2 IC50.
Chain of hJAK2 (O60674 whole entry): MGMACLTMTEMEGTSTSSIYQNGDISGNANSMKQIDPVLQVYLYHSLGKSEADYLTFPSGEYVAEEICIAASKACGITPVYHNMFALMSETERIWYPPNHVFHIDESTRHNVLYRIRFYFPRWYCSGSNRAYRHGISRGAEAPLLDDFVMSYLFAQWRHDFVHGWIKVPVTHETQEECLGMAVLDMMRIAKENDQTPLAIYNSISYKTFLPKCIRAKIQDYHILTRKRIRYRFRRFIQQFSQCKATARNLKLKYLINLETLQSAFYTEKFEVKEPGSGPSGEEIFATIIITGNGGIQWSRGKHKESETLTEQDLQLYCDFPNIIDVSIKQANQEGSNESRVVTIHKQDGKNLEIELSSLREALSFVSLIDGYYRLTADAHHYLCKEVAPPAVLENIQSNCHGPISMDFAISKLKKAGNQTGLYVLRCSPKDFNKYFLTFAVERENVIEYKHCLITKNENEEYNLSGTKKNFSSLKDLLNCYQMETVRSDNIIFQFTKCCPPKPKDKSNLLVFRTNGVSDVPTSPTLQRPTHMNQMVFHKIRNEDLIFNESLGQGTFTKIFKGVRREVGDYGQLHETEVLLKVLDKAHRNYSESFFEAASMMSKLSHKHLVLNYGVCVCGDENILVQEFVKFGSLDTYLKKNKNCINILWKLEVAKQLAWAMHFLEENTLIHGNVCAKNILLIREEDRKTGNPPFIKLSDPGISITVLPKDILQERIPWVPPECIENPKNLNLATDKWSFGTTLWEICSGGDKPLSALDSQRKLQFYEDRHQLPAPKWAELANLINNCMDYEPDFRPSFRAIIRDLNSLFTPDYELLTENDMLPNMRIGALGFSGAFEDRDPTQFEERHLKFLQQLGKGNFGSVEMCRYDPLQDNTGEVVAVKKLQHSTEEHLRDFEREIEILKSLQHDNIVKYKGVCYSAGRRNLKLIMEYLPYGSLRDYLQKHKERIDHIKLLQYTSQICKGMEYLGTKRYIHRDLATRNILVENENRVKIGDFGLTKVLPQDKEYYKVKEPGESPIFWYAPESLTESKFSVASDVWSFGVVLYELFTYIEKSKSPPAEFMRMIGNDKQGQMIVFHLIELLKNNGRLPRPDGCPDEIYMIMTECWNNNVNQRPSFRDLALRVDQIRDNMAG

Chain of IKKε (Q14164 whole entry): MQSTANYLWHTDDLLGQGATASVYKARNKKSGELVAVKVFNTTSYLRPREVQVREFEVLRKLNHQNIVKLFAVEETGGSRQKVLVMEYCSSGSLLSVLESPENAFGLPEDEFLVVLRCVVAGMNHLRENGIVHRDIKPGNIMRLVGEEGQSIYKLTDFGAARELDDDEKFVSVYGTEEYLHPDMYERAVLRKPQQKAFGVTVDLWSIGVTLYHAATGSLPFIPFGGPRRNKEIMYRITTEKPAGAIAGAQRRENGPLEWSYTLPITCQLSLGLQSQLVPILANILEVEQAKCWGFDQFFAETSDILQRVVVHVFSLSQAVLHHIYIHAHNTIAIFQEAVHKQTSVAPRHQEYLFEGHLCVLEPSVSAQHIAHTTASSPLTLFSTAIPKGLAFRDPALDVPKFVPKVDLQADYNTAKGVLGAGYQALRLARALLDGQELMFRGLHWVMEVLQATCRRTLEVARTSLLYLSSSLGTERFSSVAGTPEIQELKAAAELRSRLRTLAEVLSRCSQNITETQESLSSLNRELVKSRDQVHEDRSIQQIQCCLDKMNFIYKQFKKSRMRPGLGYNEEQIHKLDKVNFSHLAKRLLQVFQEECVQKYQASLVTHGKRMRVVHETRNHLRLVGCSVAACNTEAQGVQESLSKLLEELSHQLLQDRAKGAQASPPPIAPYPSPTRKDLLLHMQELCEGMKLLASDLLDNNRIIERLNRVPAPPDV

On to `C[C@H](O)C(=O)N1CC[C@H](Oc2ccc(-c3ncnc(Nc4ccc5c(c4)NCCO5)n3)cc2C#N)[C@H](F)C1` [Example 517, 5-(4-((3,4-dihydro-2H-benzo[b][1,4]oxazin-6-yl)amino)-1,3,5-triazin-2-yl)-2-(((3R,4S)-3-fluoro-1-((S)-2-hydroxypropanoyl)piperidin-4-yl)oxy)benzonitrile], for which the IC50 on IKKε amounted to 1 nM; on TBK1, 2 nM; at hJAK2 it was 828 nM.

Consider `N#Cc1cc(-c2ncnc(Nc3ccc(N4CCN(C5COC5)CC4)cc3)n2)ccc1O[C@H]1CCN(C(=O)[C@@H]2COC(=O)N2)CC1(F)F` [Example 519, 2-(((S)-3,3-difluoro-1-((S)-2-oxooxazolidine-4-carbonyl)piperidin-4-yl)oxy)-5-(4-((4-(4-(oxetan-3-yl)piperazin-1-yl)phenyl)amino)-1,3,5-triazin-2-yl)benzonitrile], for which the figures for the IC50 on IKKε, against TBK1 and on hJAK2 were 1 nM, 2 nM and 184 nM, respectively.

For `N#Cc1cc(-c2ncnc(Nc3ccc(N4CCN(C5COC5)CC4)cc3)n2)ccc1O[C@H]1CCN(C(=O)[C@@H]2CSC(=O)N2)CC1(F)F` [Example 520, 2-(((S)-3,3-difluoro-1-((R)-2-oxothiazolidine-4-carbonyl)piperidin-4-yl)oxy)-5-(4-((4-(4-(oxetan-3-yl)piperazin-1-yl)phenyl)amino)-1,3,5-triazin-2-yl)benzonitrile], the IC50 was 1 nM on IKKε, 2 nM against TBK1 and 177 nM at hJAK2.

`Cc1cc(-c2ncnc(Nc3ccc(N4CCN(C5COC5)CC4)cc3)n2)cc(C#N)c1O[C@H]1CCN(C(=O)[C@H](C)O)C[C@H]1F` [Example 521, 2-(((3R,4S)-3-fluoro-1-((S)-2-hydroxypropanoyl)piperidin-4-yl)oxy)-3-methyl-5-(4-((4-(4-(oxetan-3-yl)piperazin-1-yl)phenyl)amino)-1,3,5-triazin-2-yl)benzonitrile]: the IC50 at IKKε is 39 nM; on TBK1, 16 nM; at hJAK2, at least 1000 nM.

On to `Cc1cc(-c2ncnc(Nc3ccc(N4CCN(C5COC5)CC4)cc3)n2)cc(C#N)c1O[C@H]1CCN(C(=O)CO)C[C@H]1F` [Example 522, 2-(((3R,4S)-3-fluoro-1-(2-hydroxyacetyl)piperidin-4-yl)oxy)-3-methyl-5-(4-((4-(4-(oxetan-3-yl)piperazin-1-yl)phenyl)amino)-1,3,5-triazin-2-yl)benzonitrile], for which the IC50 at IKKε is 28 nM; against TBK1 it was 14 nM; at hJAK2, at least 1000 nM.

In the case of `C[C@@H]1OC(=O)N[C@@H]1C(=O)N1CC[C@H](Oc2ccc(-c3ncnc(Nc4ccc(N5CCN(C6COC6)CC5)cc4)n3)cc2C#N)[C@H](F)C1` [Example 524, 2-(((3R,4S)-3-fluoro-1-((4S,5S)-5-methyl-2-oxooxazolidine-4-carbonyl)piperidin-4-yl)oxy)-5-(4-((4-(4-(oxetan-3-yl)piperazin-1-yl)phenyl)amino)-1,3,5-triazin-2-yl)benzonitrile], the concentration for half-maximal inhibition (IC50) on IKKε was determined as 29 nM; on TBK1, 7 nM; at hJAK2 it was 959 nM.

For `N#Cc1cc(-c2ncnc(Nc3ccc(N4CCN(C5COC5)CC4)cc3)n2)ccc1O[C@H]1CCN(C(=O)c2coc(=O)[nH]2)C[C@H]1F` [Example 525, 2-(((3R,4S)-3-fluoro-1-(2-oxo-2,3-dihydrooxazole-4-carbonyl)piperidin-4-yl)oxy)-5-(4-((4-(4-(oxetan-3-yl)piperazin-1-yl)phenyl)amino)-1,3,5-triazin-2-yl)benzonitrile], the IC50 at IKKε stood at 3 nM; against TBK1 it was 3 nM; on hJAK2 it was 390 nM.

Turning to `Cc1n[nH]c(C(=O)N2CC[C@H](Oc3ccc(-c4ncnc(Nc5ccc(N6CCN(C7COC7)CC6)cc5)n4)cc3C#N)[C@H](F)C2)c1C` [Example 526, 2-(((3R,4S)-1-(3,4-dimethyl-1H-pyrazole-5-carbonyl)-3-fluoropiperidin-4-yl)oxy)-5-(4-((4-(4-(oxetan-3-yl)piperazin-1-yl)phenyl)amino)-1,3,5-triazin-2-yl)benzonitrile], the IC50 at IKKε was 19 nM; on TBK1 it was 9 nM; at hJAK2, 447 nM.

Turning to `Cc1c[nH]c(C(=O)N2CC[C@H](Oc3ccc(-c4ncnc(Nc5ccc(N6CCN(C7COC7)CC6)cc5)n4)cc3C#N)[C@H](F)C2)n1` [Example 527, 2-(((3R,4S)-3-fluoro-1-(4-methyl-1H-imidazole-2-carbonyl)piperidin-4-yl)oxy)-5-(4-((4-(4-(oxetan-3-yl)piperazin-1-yl)phenyl)amino)-1,3,5-triazin-2-yl)benzonitrile], the IC50 amounted to 8 nM at IKKε, 5 nM on TBK1 and 323 nM on hJAK2.

With `Cc1cn[nH]c1C(=O)N1CC[C@H](Oc2ccc(-c3ncnc(Nc4ccc(N5CCN(C6COC6)CC5)cc4)n3)cc2C#N)[C@H](F)C1` [Example 528, 2-(((3R,4S)-3-fluoro-1-(4-methyl-1H-pyrazole-5-carbonyl)piperidin-4-yl)oxy)-5-(4-((4-(4-(oxetan-3-yl)piperazin-1-yl)phenyl)amino)-1,3,5-triazin-2-yl)benzonitrile], the results for the IC50 at IKKε, on TBK1 and on hJAK2 were 20 nM, 8 nM and 368 nM, respectively.

Consider `N#Cc1cc(-c2ncnc(Nc3ccc(N4CCN(C5COC5)CC4)cc3)n2)ccc1O[C@H]1CCN(C(=O)[C@@H]2CC(=O)N2)C[C@H]1F` [Example 529, 2-(((3R,4S)-3-fluoro-1-((S)-4-oxoazetidine-2-carbonyl)piperidin-4-yl)oxy)-5-(4-((4-(4-(oxetan-3-yl)piperazin-1-yl)phenyl)amino)-1,3,5-triazin-2-yl)benzonitrile], for which the IC50 on IKKε amounted to 4 nM; against TBK1 it was 3 nM; on hJAK2, 356 nM.

With `COc1cc(Nc2ncnc(-c3ccc(O[C@@H]4CCC(=O)NC4)c(C#N)c3)n2)ccc1N1CCN(C2COC2)CC1` [Example 531, (R)-5-(4-((3-methoxy-4-(4-(oxetan-3-yl)piperazin-1-yl)phenyl)amino)-1,3,5-triazin-2-yl)-2-((6-oxopiperidin-3-yl)oxy)benzonitrile], the IC50 at IKKε turned out to be 3 nM; against TBK1, 4 nM; on hJAK2, 55 nM.

As for `Cc1cc(Nc2ncnc(-c3ccc(O[C@H]4CCN(C(=O)CCO)C[C@H]4F)c(C#N)c3)n2)ccc1N1CCN(C2COC2)CC1` [Example 533, 2-(((3R,4S)-3-fluoro-1-(3-hydroxypropanoyl)piperidin-4-yl)oxy)-5-(4-((3-methyl-4-(4-(oxetan-3-yl)piperazin-1-yl)phenyl)amino)-1,3,5-triazin-2-yl)benzonitrile], the IC50 amounted to 7 nM at IKKε, 4 nM on TBK1 and 88 nM on hJAK2.

For the compound `Cc1cc(Nc2ncnc(-c3ccc(N4C[C@H](O)C[C@@H]4C)c(C#N)c3)n2)ccc1N1CCN(C2COC2)CC1` [Example 534, 2-((2S,4R)-4-hydroxy-2-methylpyrrolidin-1-yl)-5-(4-((3-methyl-4-(4-(oxetan-3-yl)piperazin-1-yl)phenyl)amino)-1,3,5-triazin-2-yl)benzonitrile], the IC50 on IKKε turned out to be 7 nM; on TBK1, 4 nM; on hJAK2 it was 32 nM.

In the case of `C[C@H]1CN(c2ccc(Nc3ncnc(-c4ccc(O[C@H]5CCN(C(=O)[C@@H]6CCC(=O)N6)C[C@H]5F)c(C#N)c4)n3)cc2)CCN1C1COC1` [Example 535, 2-(((3R,4S)-3-fluoro-1-((S)-5-oxopyrrolidine-2-carbonyl)piperidin-4-yl)oxy)-5-(4-((4-((S)-3-methyl-4-(oxetan-3-yl)piperazin-1-yl)phenyl)amino)-1,3,5-triazin-2-yl)benzonitrile], the IC50 on IKKε was found to be 3 nM; at TBK1 it was 3 nM; on hJAK2, 904 nM.

Take `Cc1cc(Nc2ncnc(-c3ccc(O[C@H]4CCN(C(=O)[C@@H]5CCC(=O)N5)C[C@H]4F)c(C#N)c3)n2)ccc1N1CCN(C2COC2)CC1` [Example 536, 2-(((3R,4S)-3-fluoro-1-((S)-5-oxopyrrolidine-2-carbonyl)piperidin-4-yl)oxy)-5-(4-((3-methyl-4-(4-(oxetan-3-yl)piperazin-1-yl)phenyl)amino)-1,3,5-triazin-2-yl)benzonitrile]: the figures for the IC50 at IKKε, against TBK1 and at hJAK2 were 1 nM, 2 nM and 101 nM, respectively.

Take `CC(=O)Nc1ccc(Nc2ncnc(-c3ccc(O[C@H]4CCN(C(=O)[C@@H]5CCC(=O)N5)C[C@H]4F)c(C#N)c3)n2)cn1` [Example 537, N-(5-((4-(3-cyano-4-(((3R,4S)-3-fluoro-1-((S)-5-oxopyrrolidine-2-carbonyl)piperidin-4-yl)oxy)phenyl)-1,3,5-triazin-2-yl)amino)pyridin-2-yl)acetamide]: the half-maximal inhibitory concentration (IC50) was 18 nM at IKKε, 8 nM on TBK1 and at least 1000 nM on hJAK2.

On to `CCOc1ccc(Nc2ncnc(-c3ccc(O[C@H]4CCN(C(=O)[C@@H]5CCC(=O)N5)C[C@H]4F)c(C#N)c3)n2)cn1` [Example 538, 5-(4-((6-ethoxypyridin-3-yl)amino)-1,3,5-triazin-2-yl)-2-(((3R,4S)-3-fluoro-1-((S)-5-oxopyrrolidine-2-carbonyl)piperidin-4-yl)oxy)benzonitrile], for which the IC50 on IKKε was 14 nM; on TBK1, 7 nM; at hJAK2, at least 1000 nM.

For the compound `C[C@H](O)C(=O)N1CC[C@H](Oc2ccc(-c3ncnc(Nc4cccc(CN5CCOCC5)c4)n3)cc2C#N)[C@H](F)C1` [Example 539, 2-(((3R,4S)-3-fluoro-1-((S)-2-hydroxypropanoyl)piperidin-4-yl)oxy)-5-(4-((3-(morpholinomethyl)phenyl)amino)-1,3,5-triazin-2-yl)benzonitrile], the IC50 is 2 nM on IKKε, 3 nM at TBK1 and 519 nM on hJAK2.
